Test results published in patent publication US12011452B2, “Compositions and methods for treatment of mitochondrial respiratory chain dysfunction and other mitochondrial disorders” (The Children's Hospital of Philadelphia, priority 2018, dated 2024).
Counter-ions that a name gives are not always drawn. Like-named read-outs stand apart in the source and are kept apart here.

How the values were obtained:
N2 = assay: GSH levels in worms by HPLC-ECD after GSH depleting agent; assay type: in vivo, C. elegans; settings: treated for 24 hours
Description: FIG. 28. Effect of the GSH Depleting agent, Diethyl Maleate (DEM). Worms were treated with DEM for 24 hours.
GSH levels are an important parameter to evaluate the physiological effects of mitochondrial disease. In the present example, the development and optimization of an HPLC-ECD assay to sensitively quantify reduced (GSH) and oxidized (GSSG) glutathione levels in C. elegans is described. We have optimized each of the following: mobile phase buffer composition, homogenization conditions, deproteinizing conditions and reducing agents.

[1] = tested on: DLD-1 deficient (did-1 RNAi) C. elegans; assay: Animal size (length) of DLD-1 deficient (dld-1 RNAi) worms, COPAS Biosorter; assay type: in vivo; settings: dld-1 RNAi worms; conc.: Nicotinic Acid 1 mM; Riboflavin 10 uM; Thiamine 25 mM; L-Carnitine 100 uM; Folinic Acid 10 uM; Glucose 10 uM; DCA 25 mM; Cysteamine 100 um; NAC 2.5 Mm; AICAR 500 uM; Hydralazine 200 uM; Lithium Chloride 10 mM; Cyclohexamide 2 uM; Arginine 10 mM; Taurine 800 uM; Resveratrol 50 uM; Rapamycin 2.5 nM; Probucol 5 uM; Lipoic Acid 10 uM; Vitamin E 250 uM
Description: RNAi feeding—DLD-1 RNAi clone (LLC1.3) was obtained from the Ahringer RNAi collection and was sequence confirmed prior to use. The vector L4440 was utilized as a control.
(§1) Brood size analysis—Worms were synchronized by picking ten to fifteen N2 gravid adult worms onto NGM plates containing 0.2 mM IPTG, ampicillin and tetracycline spread with DLD-1 (LLCI.3) or L4440 bacteria and allowed to lay eggs for 2-2.5 hours. A single L4 larvae from the egg lay was placed on a 4 mm dish containing NGM and corresponding RNAi clone and allowed to lay eggs for 24 hours before being transferred to a fresh 4 mm NGM plate. Worms were transferred to fresh plates for 5 days and progeny were counted from each plate. Western blot analysis—Approximately 500 young adult worms were briefly washed with S. basal media before resuspension in 250 uL of RIPA buffer (50 mM Tris HCl, pH 8.0, 150 mM NaCl, 1.0% NP-40, 0.5% sodium deoxycholate, 1.0 mM EDTA, 0.1% SDS) containing a 1/100 dilution of Protease inhibitor cocktail (Sigma). Worms were lysed using a mechanical hand homogenizer and pestle on ice and the resulting lysate was maintained at constant agitation for 30 minutes at 4° C. Lysate was subsequently centrifuged for 20 minutes at 16,000 rpm and the supernatant was removed. Protein concentration was determined using the Pierce BCA protein assay kit. 30 ug of whole cell lysate was utilized and blots were probed with anti-LAD monoclonal antibody at a 1:7500 dilution (abcam) to detect the DLD-1 protein. As a loading control blots were additionally probed with anti-Beta tubulin (source) at a […]. Chemotaxis Assay—Chemotaxis analysis was performed as has been previously described (Haroon, S. J. of Cell Reports (2018); pmid:29562168). In brief, approximately 30 worms were collected and washed with S. basal media. Worms were placed 5 cm away from a spot containing 2 uL of 10% isoamyl alcohol dissolved in 100% ethanol and 1 uL of 10% sodium azide. After one hour distance traveled by each worm was marked and analyzed via image J. Length Analysis—A synchronized population of worms grown on L4440 and LLCI.3 RNAi clones were monitored from the L4 stage of development till day 5 of adulthood. On the day of length analysis […] Quantification of Hsp6::GFP induction—A synchronized egg lay using 15-20 Hsp6::GFP gravid young adult worms on L4440 or LLCI.3 RNAi clones was performed to induce depletion of DLD-1 protein. Day 1 young adult worms were washed once in 4-5 mL of S. basal in a 50 mL conical tube and pelleted by centrifugation at 1300×g for 1 minute. Spent S. basal was removed and worms were resuspended in a final volume of 10 mL in preparation for biosorter analysis. An excitation wavelength of 488 nm and emission filter of 510 nm was utilized to measure induction of Hsp6::GFP induction in individual worms. Experiments were conducted with approximately 300 worms per sample with three biological replicates for each condition tested.
(§2) DLD depletion in C. elegans was achieved by feeding wild-type (N2 Bristol) worms E. coli expressing a dsRNA targeting DLD-1 messenger RNA. Brood size, survival, activity, growth (length), DLD-1 expression, and mitochondrial unfolded protein response (UPR^mt) were quantified in the resulting DLD-1^−/− animals. High throughput semi-automated analyses of animal growth (length) and mitochondrial stress response (UPR^mt) were also measured in day 1 adult worm populations using the COPAS Biosorter (Union Biometrica).
(§3) Therapeutic impact on DLD-1^−/− C. elegans UPR^mt induction and growth (length), as well as DLDH−/− zebrafish survival, liver morphology, and swimming behavior were tested for 5 therapies, including a PDH activator (dichloroacetate, DCA), PDH cofactors (thiamine, riboflavin, lipoic acid), and a lipid lowering drug that functions as a signaling modifier to inhibit mTORCI and activate AMPK and PPAR (probucol).

hsp-6p::GFP [2] = assay: Mitochondrial stress (UPRmt) hsp-6p::GFP induction in dld-1 RNAi worms; assay type: in vivo, C. elegans; settings: dld-1 RNAi worms; conc.: Nicotinic Acid 1 mM; Riboflavin 10 uM; Thiamine 25 mM; L-Carnitine 100 uM; Folinic Acid 10 uM; Glucose 10 uM; DCA 25 mM; Cysteamine 100 um; NAC 2.5 Mm; AICAR 500 uM; Hydralazine 200 uM; Lithium Chloride 10 mM; Cyclohexamide 2 uM; Arginine 10 mM; Taurine 800 uM; Resveratrol 50 uM; Rapamycin 2.5 nM; Probucol 5 uM; Lipoic Acid 10 uM; Vitamin E 250 uM
Description: as §1, §2, §3

NUBPL^−/− C. elegans = assay: Lifespan of NUBPL-/- C. elegans model of Complex I disease; assay type: in vivo; settings: Glu 10 mM, NAC 2.5 mM, DCA 25 mM, single biological replicate
From the text: We obtained a genetic knockout NUBPL (34.7% homology) worm strain TM3754 from the National BioResource Project, which has a 478 base pair deletion. […] The mutation in this strain is currently not balanced, so to balance it and obtain a homozygous mutant strain we have outcrossed it with FX30168 tm18[dpy-5(tmIs1236)]).
These animal models can be used to advantage for identifying new agents useful for the treatment of mitochondrial and other respiratory chain disorders. […] NUBPL is a nuclear gene-encoded complex I assembly factor, in which autosomal recessive (biallelic) mutations cause severe human mitochondrial disease manifesting with cerebellar ataxia and Leigh syndrome.

SURF1-del1−/− zebrafish = assay: SURF1 knockout zebrafish pre-treatment before NaN3 exposure: brain death, startle response; assay type: in vivo
From the text: The phenotypes assessed can include without limitation, swimming activity or swimming fatigue, organ structural impairment or dysfunction gray brain alterations in mitochondrial physiology (=brain death) (FIG. 36C), heart rate, startle (tap) response (stimulus on plate), and touch response (stimulus on animal).

gas-1(fc21) C. elegans = assay: Lifespan of gas-1(fc21) Complex I NDUFS2 mutant worms; assay type: in vivo; settings: administered at development (L1); previous studies in applicant's lab
gas-1(fc21) worms = assay: Mitochondrial physiology (TMRE, MitoSOX, MitoTracker Green) in gas-1(fc21) worms; assay type: in vivo, C. elegans; settings: 24 hour treatment
Description: Mitochondrial oxidant burden (MitoSOX Red), membrane potential (tetramethylrhodamine ethyl ester, TMRE), and mitochondrial content (MitoTracker Green FM, MTG) were performed in C. elegans at 20° C. using in vivo terminal pharyngeal bulb relative fluorescence microscopic quantitation. […] Simultaneously with the drug treatments, worms were treated with either 10 μM MitoSOX Red (matrix oxidant burden), 100 nM TMRE (mitochondrial membrane potential), or 2 μM MitoTracker Green FM (mitochondria content) for 24 h. The next day, worms were transferred with a pick onto 35 mm agar plates spread with OP50 E. coli without dye for 1 h to allow clearing of residual dye from the gut. Worms were then paralyzed in situ with 5 mg/ml levamisole. Photographs were taken in a darkened room at 160× magnification with a Cool Snap cf2 camera (Nikon, Melville, N.Y.). A CY3 fluorescence cube set (MZFLIII, Leica, Bannockburn, IL) was used for MitoSOX and TMRE. […] Fluorescence data for each strain were normalized to its same day control to account for day-to-day variation. […] The significance of the difference in the mean fluorescence intensity between strains under different experimental conditions was assessed by mixed-effect ANOVA, which analyzes potential batch effect due to samples being experimentally prepared, processed, and analyzed on different days by including a batch random effect in the model. […]

[3] = tested on: rotenone treated zebrafish; assay: Rotenone model of brain death in zebrafish; settings: in vivo
Description: FIG. 36B) Wild-type (AB) fish are pre-exposed to drug treatments in their water from 5 days post fertilization (dpf) to 7 dpf. On 7 dpf, Zebrafish are co-treated with 150 nM of Rotenone (complex I inhibitor) and the same drug treatment(s). Zebrafish are then placed on the automated Zebrabox (Viewpoint) for 20 minutes of light at 60% followed by 20 minutes of darkness (eg, light at 0%) to induce a neurobehavioral startle response. The activity from the startle response is binned to 5 minute, and shown here as average activity at 581 minutes post-rotenone exposure. Activity score is normalized using percent of control (POC) to wild-type AB fish. […] Error bars convey standard error of mean. *, p<0.05; **, p<0.01; ***, p<0.001 by Student's T test. Glu, 10 mM glucose. […] NAC, 2.5 mM N-acetylcysteine. […] FIG. 36D+36E.
hsp-6p::GFP [4] = assay: UPRmt in K09A9.5 (gas-1) knockdown hsp-6p::gfp reporter worms; assay type: in vivo, C. elegans; settings: 10 mM Glu, 2.5 mM NAC, 1 mM Nicotinic acid
Description: UPRmt in C. elegans is assessed using a GFP reporter for hsp-6.

[5] = cited from earlier work
[6] = cited from earlier work; remark: listed apart in the source
[7] = pre-treated from 5 dpf, 45 μM NaN3 from 6 dpf, assessed 7 dpf

| Compound | GSH levels (N2) | Size [1] | HSP-6P::GFP (hsp-6p::GFP [2]) | median lifespan of NUBPL−/− worms (NUBPL^−/− C. elegans) | median lifespan of NUBPL−/− worms (NUBPL^−/− C. elegans; listed as N-acetylcysteine) | effect on sodium azide treated (stressor) brains of surf1 KO zebrafish (SURF1-del1−/− zebrafish; FIG. 36D) | decompensation from acute low-dose CIV inhibition (SURF1-del1−/− zebrafish; SURF1−/− animals) | brain death from NaN3 exposure (SURF1-del1−/− zebrafish; [7]) | neuromuscular dysfunction (startle response) from NaN3 exposure (SURF1-del1−/− zebrafish; [7]) | rescue of short lifespan of gas-1(fc21) to wild type N2 levels by individual compounds (gas-1(fc21) C. elegans) | effect on reduced mitochondrial membrane potential (gas-1(fc21) worms) | effect on rotenone treated (stressor) brains of zebrafish [3] | UPRmt stress response (hsp-6p::gfp fluorescence) (hsp-6p::GFP [4]) | half-life ([5]; adults) [h] | metabolism ([5]; in vivo) | urine excretion ([5]; in vivo) | half-life ([5]; neonates) [h] | solubility in chloroform and ether [6] | solubility in water and alcohol [6] |
| --- | --- | --- | --- | --- | --- | --- | --- | --- | --- | --- | --- | --- | --- | --- | --- | --- | --- | --- | --- |
| CCOC(=O)/C=C\C(=O)OCC [DEM, Diethyl Maleate] | dose-dependently reduced | – | – | – | – | – | – | – | – | – | – | – | – | – | – | – | – | – | – |
| CC(=O)N[C@@H](CS)C(=O)O [NAC, N-acetylcysteine] | – | No Effect | No Effect | significantly rescued | improve | protective effects | preventing | prevented | prevented | partially or fully rescue | significantly increases | Protective effects | significantly reduce | 5.6 | extensively liver metabolized | 22-30% | 11 | practically insoluble | soluble |
